In article PMC9564936 (Proceedings of the National Academy of Sciences of the …, 2022):

Assays:
EF-P (A1S_2419) [1] = biological target: T1, EF-P (A1S_2419) (Acinetobacter baumannii, UniProt A3M7E3); test: isothermal titration calorimetry; type: binding
T1 sequence (A3M7E3 1-189): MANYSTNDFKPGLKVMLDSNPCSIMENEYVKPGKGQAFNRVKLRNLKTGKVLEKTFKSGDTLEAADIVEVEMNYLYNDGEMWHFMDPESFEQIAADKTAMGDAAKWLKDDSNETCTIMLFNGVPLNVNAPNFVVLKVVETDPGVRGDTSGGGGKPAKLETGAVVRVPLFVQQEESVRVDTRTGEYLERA

EF-P (A1S_2419) [2] = biological target: T1, EF-P (A1S_2419); test: differential scanning fluorimetry; type: binding; settings: 500 µM c-di-GMP

With `Nc1nc2c(ncn2[C@@H]2O[C@@H]3COP(=O)(O)O[C@H]4[C@@H](O)[C@H](n5cnc6c(=O)[nH]c(N)nc65)O[C@@H]4COP(=O)(O)O[C@H]3[C@H]2O)c(=O)[nH]1` [c-di-GMP, bis-(3′-5′)-cyclic guanosine monophosphate] as the compound, how does the Kd (EF-P (A1S_2419) [1]) read?
The Kd was 5.9 µM.

And the Kd (EF-P of A. albensis)?
The Kd was 10.7 µM.

What about the thermal shift (EF-P (A1S_2419) [2]) of the same compound?
The thermal shift was “The DSF assay showed a marked shift in the melting curve of EF-P”.
